# Reference: US20240122926A1, “APELIN RECEPTOR MODULATORS FOR TREATING MUSCLE CONDITIONS” (priority 2022, published 2024)
# Entries after “also recorded” stand apart in the source; their conditions may differ. Read-outs that look alike come from different tables or passages of the source.
# Assays:
# Assay type in all cases: in vivo, human
# [1] = test system: healthy volunteers aged ≥65 years; assay: Phase 1b bed rest study, ultrasound muscle quality grade (echo density)
# Description: (§1) One day before (baseline, D-1) and 5 (D5) and 10 (D10) days after initiation of bed rest, key muscle atrophy endpoints were measured: thigh circumference; cross-sectional area (CSA) and A-P diameter of vastus lateralis (ultrasound); ultrasound muscle quality grade, an index that quantifies fatty degeneration in muscle (ultrasound echo density); and muscle protein synthesis rate (biopsy). Parameters measured during the 10-day bed rest period include thigh circumference, muscle size, muscle quality (e.g., fatty degeneration), and muscle protein synthetic rate.
# The echo density measurements showing the number of patients receiving an ultrasound muscle quality grading scale using a numerical grading system of grade 1 or a grade 2 classifying fatty muscle atrophy by measuring fatty infiltration of the muscle fibers of a biopsy from the patient. […] Open box represents normal muscle (grade 1), and striped box represents muscle that contains some fatty streaks (grade 2). […] (p=0.0019).
# [2] = test system: healthy volunteers aged ≥65 years; assay: Phase 1b bed rest study, muscle protein synthesis rate (heavy water, vastus lateralis microbiopsy)
# Description: Heavy Water Consumption and Assessments. For subjects in Part B only, heavy water, deuterated H2O (D2O), is provided to subjects to drink during the pre-treatment and treatment periods before breakfast, in the afternoon, and after fasting overnight, at timepoints described previously. Blood samples (10 mL) and urine samples are collected at timepoints described previously to assess skeletal muscle protein fractional synthetic rate (FSR).
# Skeletal muscle protein synthesis rate (%/time) for individual muscle proteins are compared first as a linear contrast including all doses versus placebo and then as individual dose comparisons to placebo.
# as §1
# [3] = Phase 1 study BGE-105-101 Part A (SAD), pharmacokinetics after IV infusion; conditions: for Dose-normalized AUCinf / Dose-normalized Cmax: unit assumed; for AUC(0-t) / AUC(0-inf) / half-life / Cmax: human, plasma; for AUC(0-t) / AUC(0-inf) / half-life: intravenous; for Cmax: iv, IV infusion
# Description: After a baseline period of 24 hours in the clinic, all subjects receive a LD, 1-hour infusion on Day 1. After a 48-hour wash-out period, in which PK and PK/PD data is collected, subjects receive a 23-hour infusion (1-hour LD followed by a 22-hour maintenance dose). See FIG. 10 for the different dose levels in each SAD cohort. See e.g., Table 3 below. Part A is double-blinded. The cohorts of Part A is conducted sequentially starting with SAD cohort 1.
# On Day 1 for Part A, subjects receive LD, 1-hour infusion. On Day 3, after a 48-hour washout period, subjects then receive a 23-hour infusion (1-hour LD followed by a 22-hour MD). No earlier than 24 hours after the end of infusion, subjects is discharged from the clinic on Day 5 (End of Treatment Period [EOTP]). A treatment protocol for the SAD cohorts of Part A is outlined in FIG. 12 and is described in Table 9 below.
# Relevant plasma PK parameters are derived for BGE-105 by standard noncompartmental methods and tabulated along with descriptive statistics and graphs.
# [4] = SAD1 (60 mg/360 mg), Day 1, mean
# [5] = SAD2 (120 mg/720 mg), Day 1, mean
# [6] = SAD3 (240 mg/1440 mg), Day 1, mean
smiles,measurement,setting,value
"COc1cccc(OC)c1-n1c(NS(=O)(=O)[C@@H](C)[C@H](C)c2ncc(C)cn2)nnc1-c1cncc(C)c1 [BGE-105, (2S,3R)—N-(4-(2,6-dimethoxyphenyl)-5-(5-methyl-3-pyridinyl)-4H-1,2,4-triazol-3-yl)-3-(5-methyl-2-pyrimidinyl)-2-butanesulfonamide]","Muscle grade (progression), number of subjects out of 11","[1]; 240 mg daily (cohort MD 1B), 10-day bed rest",1
same,number of patients (out of 11) moving to / worsening to ultrasound muscle quality grade 2,[1]; after 10 days of bed rest (placebo 8 of 10),1
same,"mean normalized fraction synthetic rate, range","[2]; BGE-105 treated patients with elevated rate, 10 days bed rest",0.18-2.2
same,number of patients (out of 11) with elevated rate of muscle protein synthesis,[2]; after 10 days of bed rest,8
same,decrease in the synthetic rate of muscle myofibril proteins (FSR/day) from baseline,[2]; vastus lateralis (placebo 58%),36%
same,dose proportionality / linearity of PK,"[3]; 3 SAD cohorts, dose vs Cmax and AUC",dose proportionality; also recorded: linear
same,Dose-normalized AUCinf,[3]; [4],0.66 µg·h/mL/mg
same,Dose-normalized Cmax,[3]; [4],0.12 µg/mL/mg
same,Dose-normalized AUCinf,[3]; [5],0.49 µg·h/mL/mg
same,Dose-normalized Cmax,[3]; [5],0.11 µg/mL/mg
same,Dose-normalized AUCinf,[3]; [6],0.5 µg·h/mL/mg
same,Dose-normalized Cmax,[3]; [6],0.11 µg/mL/mg
same,AUC(0-t),"[3]; 60 mg, SAD1 (60 mg/360 mg), Day 1, mean, read-out: AUC0-24",34.7 µg·h/mL
same,AUC(0-t),"[3]; 60 mg, SAD1 (60 mg/360 mg), Day 1, mean, read-out: AUClast",37.4 µg·h/mL
same,AUC(0-t),"[3]; 120 mg, SAD2 (120 mg/720 mg), Day 1, mean, read-out: AUC0-24",53.7 µg·h/mL
same,AUC(0-t),"[3]; 120 mg, SAD2 (120 mg/720 mg), Day 1, mean, read-out: AUClast",56.8 µg·h/mL
same,AUC(0-t),"[3]; 240 mg, SAD3 (240 mg/1440 mg), Day 1, mean, read-out: AUC0-24",107 µg·h/mL
same,AUC(0-t),"[3]; 240 mg, SAD3 (240 mg/1440 mg), Day 1, mean, read-out: AUClast",114 µg·h/mL
same,AUC(0-t),"[3]; SAD1 (60 mg/360 mg), Day 3, mean, read-out: AUC0-24",173 µg·h/mL
same,AUC(0-t),"[3]; SAD1 (60 mg/360 mg), Day 3, mean, read-out: AUClast",306 µg·h/mL
same,AUC(0-t),"[3]; SAD2 (120 mg/720 mg), Day 3, mean, read-out: AUC0-24",267 µg·h/mL
same,AUC(0-t),"[3]; SAD2 (120 mg/720 mg), Day 3, mean, read-out: AUClast",450 µg·h/mL
same,AUC(0-t),"[3]; SAD3 (240 mg/1440 mg), Day 3, mean, read-out: AUC0-24",612 µg·h/mL
same,AUC(0-t),"[3]; SAD3 (240 mg/1440 mg), Day 3, mean, read-out: AUClast",1060 µg·h/mL
same,AUC(0-t),"[3]; highest dose (240 mg/1440 mg), read-out: AUClast",1060 µg·h/mL
same,AUC(0-inf),[3]; [4],39.6 µg·h/mL
same,half-life,[3]; [4],9.1 h
same,AUC(0-inf),[3]; [5],58.8 µg·h/mL
same,half-life,[3]; [5],8.6 h
same,AUC(0-inf),[3]; [6],119 µg·h/mL
same,half-life,[3]; [6],8.9 h
same,Cmax,"[3]; 60 mg, SAD1 (60 mg/360 mg), Day 1, mean",7430 ng/mL
same,Cmax,"[3]; 120 mg, SAD2 (120 mg/720 mg), Day 1, mean",13700 ng/mL
same,Cmax,"[3]; 240 mg, SAD3 (240 mg/1440 mg), Day 1, mean",26700 ng/mL
same,Cmax,"[3]; SAD1 (60 mg/360 mg), Day 3, mean",10100 ng/mL
same,Cmax,"[3]; SAD2 (120 mg/720 mg), Day 3, mean",14800 ng/mL
same,Cmax,"[3]; SAD3 (240 mg/1440 mg), Day 3, mean",35600 ng/mL
